These results are taken from patent US4492757A, “Process for preparing L-threonine” (Denki Kagaku Kogyo Kabushiki Kaisha, priority 1981, dated 1985).

One assay concerns D-threonine-aldolase. The assay can be described thus: Agents inhibiting, activating or stabilizing the activity of the novel enzyme. It counts as biochemical.
In the next assay the test system is L-allothreonine-aldolase. Put plainly: Inhibitants, stabilizers and coenzyme of L-allothreonine-aldolase. It counts as biochemical.

Regarding `[Zn+2]` [Zn^2+], the “effect of the agent on the activity of the novel enzyme” value (from here on “effect … of the novel enzyme”) in the assay with D-threonine-aldolase is listed as “inhibited”. `NO` [hydroxylamine]: the “effect … of the novel enzyme” value in the assay on D-threonine-aldolase is recorded as “inhibited”. With `[Ag+]` [Ag^+], the “effect … of the novel enzyme” value with D-threonine-aldolase is reported as “inhibited”. Also, the “effect of the agent on L-allothreonine-aldolase” value in the assay on L-allothreonine-aldolase is listed as “Inhibitants”. In the case of `[Co+2]` [Co^2+], the “effect … of the novel enzyme” value with D-threonine-aldolase is “activated and stabilized”. As to `O[C@H](CS)[C@H](O)CS` (racemic) [dithiothreitol], the “effect … of the novel enzyme” value with D-threonine-aldolase was “activated and stabilized”. Also, the “effect of the agent on L-allothreonine-aldolase” value with L-allothreonine-aldolase was “Stabilizers”. Consider `O=C(O)c1cc[c]([Hg][Cl])cc1` [p-chloromercuribenzoate], for which the “effect … of the novel enzyme” value in the assay with D-threonine-aldolase is recorded as “inhibited”. In the case of `[Mg+2]` [Mg^2+], the “effect … of the novel enzyme” value in the assay on D-threonine-aldolase was “activated and stabilized”. Take `[Fe+2]` [Fe^2+]: the “effect … of the novel enzyme” value in the assay on D-threonine-aldolase was “activated and stabilized”. For `[Hg+2]` [Hg^2+], the “effect … of the novel enzyme” value in the assay with D-threonine-aldolase was “inhibited”. For the same molecule, the “effect of the agent on L-allothreonine-aldolase” value in the assay on L-allothreonine-aldolase is listed as “Inhibitants”. Turning to `Cc1ncc(COP(=O)(O)O)c(C=O)c1O` [pyridoxal-5'-phosphate], the coenzyme entry with L-allothreonine-aldolase is listed as “Coenzyme”. For the molecule `[Cu+2]` [Cu^2+], in the assay with D-threonine-aldolase, the “effect … of the novel enzyme” value was “inhibited”. For the same molecule, in the assay with L-allothreonine-aldolase, the “effect of the agent on L-allothreonine-aldolase” value was “Inhibitants”. In the case of `OCCS` [mercaptoethanol], the “effect … of the novel enzyme” value in the assay on D-threonine-aldolase is “activated and stabilized”. In addition, the “effect of the agent on L-allothreonine-aldolase” value with L-allothreonine-aldolase is listed as “Stabilizers”. In the case of `[Pd+2]` [Pd^2+], in the assay on D-threonine-aldolase, the “effect … of the novel enzyme” value was “inhibited”.

`O=S([O-])O.[Na+]` [sodium hydrogen sulfite]: the “effect … of the novel enzyme” value in the assay on D-threonine-aldolase is “activated and stabilized”. Turning to `[Mn+2]` [Mn^2+], the “effect … of the novel enzyme” value in the assay on D-threonine-aldolase is “activated and stabilized”.

As to `O=S([O-])[O-].[Na+].[Na+]` [sodium sulfite], the “effect … of the novel enzyme” value in the assay with D-threonine-aldolase is “activated and stabilized”. In addition, the “effect of the agent on L-allothreonine-aldolase” value with L-allothreonine-aldolase is given as “Stabilizers”.
